According to patent publication US20240368154A1 (GENOSCO Inc., priority 2023, published 2024):
pIC50: −log10 of the molar value.

Columns and labels:
[1] = target: T1, Recombinant ROCK1 (amino acids 1-477) (Homo sapiens, UniProt Q13464); assay: ROCK inhibition assay, LANCE Ultra TR-FRET kinase assay; type: biochemical; conditions: at Km of ATP (table title); method: 1 mM ATP, 50 nM ULight-CREBtide substrate, 1 hour, room temperature
T1 construct: Recombinant ROCK1 (amino acids 1-477)
Procedure: (§1) Kinase IC50 was determined through an in vitro assay based on LANCE Ultra TR-FRET (Time-Resolved Fluorescence Resonance Energy Transfer) homogeneous technologies method (Perkin Elmer). Recombinant ROCK1 (amino acids 1-477) and ROCK2 (amino acids 5-554) proteins were purchased from Carna Biosciences and SignalChem. Compound activities were measured by Envision and IC50s were calculated. The assays were performed in white LUMITRAC™ 200 96 well half-area microplates from Greiner Bio-One. The kinase reaction buffer consisted of 50 mM HEPES pH 7.5, 1 mM EGTA, 10 mM MgCl2, 2 mM DTT and 0.01% Tween-20. Kinases were incubated with 50 nM (ULight-CREBtide) substrate in the presence of 1 mM (ROCK1) or 1 mM (ROCK2) of ATP. The kinase reaction was carried out for 1 hour before addition of a stopping buffer to a final of 10 mM EDTA and 0.6 nM of LANCE Ultra Europium anti-phospho-CREB (Ser133) antibody (PerkinElmer TRF0200) in LANCE detection buffer. All assay incubations were performed at room temperature, and the microplates were sealed with polyester film during that time. The reaction was incubated for 1 hour, and the signal was read in Envision in TR-FRET mode (excitation at 320 nm and emission at 615/665 nm).
(§2) As used herein, a way to describe potency of inhibitory activity (nM) is a value of inhibitory activity at 50% (IC50).

[2] = target: T2, Recombinant ROCK2 (amino acids 5-554) (Homo sapiens, UniProt O75116); assay: as above; type: biochemical; conditions: at Km of ATP (table title); method: 1 mM ATP, 50 nM ULight-CREBtide substrate, 1 hour, room temperature
T2 construct: ROCK2 (amino acids 5-554)
Procedure: as §1, §2

T2 sequence (O75116 5-554): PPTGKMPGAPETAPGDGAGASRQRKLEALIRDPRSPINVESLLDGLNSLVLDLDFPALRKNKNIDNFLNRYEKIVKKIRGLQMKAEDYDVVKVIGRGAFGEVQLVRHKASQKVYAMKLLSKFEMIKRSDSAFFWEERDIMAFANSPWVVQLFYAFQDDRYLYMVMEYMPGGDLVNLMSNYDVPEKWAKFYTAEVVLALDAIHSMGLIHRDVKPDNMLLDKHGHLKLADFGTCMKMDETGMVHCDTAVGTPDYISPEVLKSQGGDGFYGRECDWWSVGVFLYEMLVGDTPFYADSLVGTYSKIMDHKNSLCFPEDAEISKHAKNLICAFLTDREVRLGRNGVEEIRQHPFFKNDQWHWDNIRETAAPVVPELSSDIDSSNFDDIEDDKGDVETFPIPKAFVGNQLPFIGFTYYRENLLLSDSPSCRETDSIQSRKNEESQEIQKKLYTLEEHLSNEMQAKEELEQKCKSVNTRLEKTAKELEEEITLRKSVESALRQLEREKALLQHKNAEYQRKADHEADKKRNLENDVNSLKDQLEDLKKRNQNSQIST
T1 sequence (Q13464 1-477): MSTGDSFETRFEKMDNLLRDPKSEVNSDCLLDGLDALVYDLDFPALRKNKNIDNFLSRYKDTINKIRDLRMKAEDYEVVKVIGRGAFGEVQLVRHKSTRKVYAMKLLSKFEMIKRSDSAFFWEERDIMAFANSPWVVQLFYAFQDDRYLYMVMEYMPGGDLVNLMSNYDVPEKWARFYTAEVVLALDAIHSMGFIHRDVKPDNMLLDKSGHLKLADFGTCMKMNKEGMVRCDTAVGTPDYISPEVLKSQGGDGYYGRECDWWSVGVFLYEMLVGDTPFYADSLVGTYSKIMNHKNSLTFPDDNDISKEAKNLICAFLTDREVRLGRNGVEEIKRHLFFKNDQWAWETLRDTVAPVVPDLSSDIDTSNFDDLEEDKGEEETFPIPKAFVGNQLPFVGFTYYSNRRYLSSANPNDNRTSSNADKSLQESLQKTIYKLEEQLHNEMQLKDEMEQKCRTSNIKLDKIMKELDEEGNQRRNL

| pIC50 [1] | pIC50 [2] | SMILES |
| --- | --- | --- |
| 7.30 to 7.96 | 7.30 to 7.96 | COc1n[nH]cc1-c1ccc2c(C(=O)C3COc4ccc(Cl)cc4C3)cn(CCO)c2c1 (racemic) [Compound 2-17] |
| > 8.00 | > 8.00 | O=C(c1cn(CCO)c2cc(-c3cn[nH]c3)ccc12)C1COc2ccccc2O1 (stereo not drawn) [Compound 2-1, 2,3-Dihydro-1,4-benzodioxin-3-yl-[1-(2-hydroxyethyl)-6-(1H-pyrazol-4-yl)indol-3-yl]methanone] |
| 6.30 to 7.29 | 6.30 to 7.29 | O=C(c1cn(CCO)c2cc(-c3cn[nH]c3)ccc12)C1COc2cc(Cl)c(Cl)cc2O1 (stereo not drawn) [Compound 2-12] |
| 6.30 to 7.29 | 7.30 to 7.96 | O=C(c1cn(CCO)c2cc(-c3c[nH]c4ncccc34)ccc12)C1COc2ccccc2O1 (stereo not drawn) [Compound 2-3] |
| 7.30 to 7.96 | > 8.00 | COc1ccc2c(c1)OC(C(=O)c1cn(CCO)c3cc(-c4cn[nH]c4)ccc13)CO2 (stereo not drawn) [Compound 2-14] |
| 6.30 to 7.29 | > 8.00 | O=C(c1cn(CCO)c2cc(-c3cn[nH]c3)ccc12)C1COc2cc(F)ccc2O1 (stereo not drawn) [Compound 2-11] |
| 6.30 to 7.29 | > 8.00 | O=C(c1nn(CCO)c2cc(-c3cn[nH]c3)ccc12)C1COc2ccc(Cl)cc2O1 (stereo not drawn) [Compound 3-4] |
| 7.30 to 7.96 | > 8.00 | O=C(c1cn(CCO)c2cc(-c3c[nH]nc3F)ccc12)C1COc2ccc(Cl)cc2C1 (stereo not drawn) [Compound 2-16] |
| 7.30 to 7.96 | > 8.00 | O=C(c1nn(CCO)c2cc(-c3cn[nH]c3)ccc12)C1COc2ccc(F)cc2C1 (stereo not drawn) [Compound 3-1, (6-fluorochroman-3-yl)(1-(2-hydroxyethyl)-6-(1H-pyrazol-4-yl)-1H-indazol-3-yl)methanone] |
| < 6.30 | 6.30 to 7.29 | COc1n[nH]cc1-c1ccc2c(C(=O)[C@H]3COc4ccc(F)cc4C3)cn(CCO)c2c1 (single isomer, unassigned) [Compound 2-22] |
| 6.30 to 7.29 | 7.30 to 7.96 | COc1n[nH]cc1-c1ccc2c(C(=O)C3COc4ccc(Cl)cc4C3)nn(CC(C)O)c2c1 (stereo not drawn) [Compound 2-33] |
| 7.30 to 7.96 | > 8.00 | COCCn1nc(C(=O)C2COc3ccccc3C2)c2ccc(-c3cn[nH]c3)cc21 (stereo not drawn) [Compound 2-24, Chroman-3-yl-[1-(2-methoxyethyl)-6-(1H-pyrazol-4-yl)indazol-3-yl]methanone] |
| > 8.00 | > 8.00 | O=C(c1cn(CCO)c2cc(-c3c[nH]nc3Cl)ccc12)C1COc2ccccc2O1 (stereo not drawn) [Compound 2-4] |
| 6.30 to 7.29 | 6.30 to 7.29 | COc1ccc2c(c1)OCC(C(=O)c1cn(CCO)c3cc(-c4cn[nH]c4)ccc13)C2 (stereo not drawn) [Compound 2-8] |
| 7.30 to 7.96 | 7.30 to 7.96 | COc1n[nH]cc1-c1ccc2c(C(=O)C3COc4ccc(F)cc4C3)cn(CCO)c2c1 (racemic) [Compound 2-20] |
| 6.30 to 7.29 | 7.30 to 7.96 | COc1n[nH]cc1-c1ccc2c(C(=O)C3COc4ccc(Cl)cc4C3)nn(C[C@@H](C)O)c2c1 (stereo partly drawn) [Compound 2-34] |
| 7.30 to 7.96 | > 8.00 | COc1n[nH]cc1-c1ccc2c(C(=O)[C@@H]3COc4ccc(F)cc4C3)cn(CCO)c2c1 (single isomer, unassigned) [Compound 2-21] |

Further lines, the compound ahead of its results:

| SMILES | pIC50 [1] | pIC50 [2] |
| --- | --- | --- |
| O=C(c1cn(CC2CC(O)C2)c2cc(-c3cn[nH]c3F)ncc12)C1COc2ccc(Cl)cc2C1 (stereo not drawn) [Compound 1-37] | 6.30 to 7.29 | 7.30 to 7.96 |
| COc1ccc2c(c1)CC(C(=O)c1cn(CCO)c3nc(-c4c[nH]nc4Cl)ccc13)CO2 (stereo not drawn) [Compound 1-22] | > 8.00 | > 8.00 |
| C[C@@H](O)Cn1cc(C(=O)C2COc3ccc(F)cc3C2)c2cnc(-c3c[nH]nc3Cl)cc21 (stereo partly drawn) [Compound 1-21] | > 8.00 | > 8.00 |
| COc1ccc2c(c1)C[C@H](C(=O)c1cn(C[C@H](C)O)c3cc(-c4cn[nH]c4F)ncc13)CO2 [Compound 1-26] | > 8.00 | > 8.00 |
| COc1ccc2c(c1)CC(C(=O)c1cn(C[C@H](C)O)c3cc(-c4cn[nH]c4F)ncc13)CO2 (stereo partly drawn) [Compound 1-25] | 7.30 to 7.96 | > 8.00 |
| O=C(c1cn(CCO)c2cc(-c3cn[nH]c3)ccc12)C1COc2ccc(F)cc2O1 (stereo not drawn) [Compound 2-9] | 7.30 to 7.96 | > 8.00 |
| COc1n[nH]cc1-c1ccc2c(C(=O)C3COc4ccc(Cl)cc4C3)cn(C[C@H](C)O)c2c1 (stereo partly drawn) [Compound 1-43] | 6.30 to 7.29 | 7.30 to 7.96 |
| CC(C)(O)Cn1cc(C(=O)[C@@H]2COc3ccc(Cl)cc3C2)c2cnc(-c3c[nH]nc3Cl)cc21 [Compound 1-32] | 7.30 to 7.96 | > 8.00 |
| O=C(c1cn(CCO)c2nc(-c3c[nH]nc3Cl)ccc12)C1COc2ccc(F)cc2C1 (stereo not drawn) [Compound 1-3] | 7.30 to 7.96 | > 8.00 |
| COCCn1nc(C(=O)[C@@H]2COc3ccccc3O2)c2ccc(-c3cn[nH]c3)cc21 [Compound 2-25] | 7.30 to 7.96 | 7.30 to 7.96 |
| CC[C@H](O)Cn1cc(C(=O)C2COc3ccc(Cl)cc3C2)c2cnc(-c3cn[nH]c3F)cc21 (stereo partly drawn) [Compound 1-36] | 6.30 to 7.29 | 7.30 to 7.96 |
| COc1ccc2c(c1)CC(C(=O)c1cn(CC(C)(C)O)c3cc(-c4cn[nH]c4Cl)ncc13)CO2 (stereo not drawn) [Compound 1-29] | > 8.00 | > 8.00 |
| CC(O)Cn1cc(C(=O)C2COc3ccc(F)cc3C2)c2cnc(-c3c[nH]nc3Cl)cc21 (stereo not drawn) [Compound 1-14] | > 8.00 | > 8.00 |
| CC(C)(O)Cn1cc(C(=O)C2COc3ccc(Cl)cc3C2)c2cnc(-c3cn[nH]c3Cl)nc21 (stereo not drawn) [Compound 1-57] | > 8.00 | > 8.00 |
| Cc1n[nH]cc1-c1ccc2c(C(=O)C3COc4ccc(F)cc4C3)cn(CCO)c2n1 (stereo not drawn) [Compound 1-15] | > 8.00 | > 8.00 |
| C[C@@H](O)Cn1cc(C(=O)C2COc3ccc(F)cc3C2)c2cnc(-c3cn[nH]c3F)nc21 (stereo partly drawn) [Compound 1-48] | > 8.00 | > 8.00 |
| CC(C)(O)Cn1cc(C(=O)[C@@H]2COc3ccc(Cl)cc3C2)c2cnc(-c3c[nH]nc3Cl)cc21 [Compound 1-19] | > 8.00 | > 8.00 |
| C[C@@H](O)Cn1cc(C(=O)[C@@H]2COc3ccc(F)cc3C2)c2cnc(-c3cn[nH]c3F)nc21 [Compound 1-49] | > 8.00 | > 8.00 |
| CC(O)Cn1cc(C(=O)C2COc3ccc(Cl)cc3C2)c2ccc(-c3c[nH]nc3Cl)cc21 (stereo not drawn) [Compound 1-39] | 7.30 to 7.96 | 7.30 to 7.96 |
| C[C@@H](O)Cn1cc(C(=O)C2COc3ccc(Cl)cc3C2)c2cnc(-c3c[nH]nc3Cl)cc21 (stereo partly drawn) [Compound 1-8] | 7.30 to 7.96 | > 8.00 |
| O=C(c1cn(CCO)c2nc(-c3c[nH]nc3Cl)ccc12)C1COc2ccc(Cl)cc2C1 (stereo not drawn) [Compound 1-4] | 7.30 to 7.96 | > 8.00 |
| O=C(c1cn(CCO)c2cc(-c3c[nH]nc3Cl)cnc12)C1COc2ccc(Cl)cc2C1 (stereo not drawn) [Compound 1-5] | 6.30 to 7.29 | 7.30 to 7.96 |
| C[C@H](O)Cn1cc(C(=O)[C@@H]2COc3ccc(Cl)cc3C2)c2cnc(-c3cn[nH]c3Cl)cc21 [Compound 1-12] | 7.30 to 7.96 | > 8.00 |
| CC(O)Cn1cc(C(=O)[C@@H]2COc3ccc(Cl)cc3C2)c2ccc(-c3c[nH]nc3Cl)cc21 (stereo partly drawn) [Compound 1-40] | 7.30 to 7.96 | > 8.00 |
| COc1ccc2c(c1)CC(C(=O)c1cn(CCO)c3cc(-c4c[nH]nc4Cl)ncc13)CO2 (stereo not drawn) [Compound 1-23] | > 8.00 | > 8.00 |
